Experimental data: US7622498B2, “Sugar derivatives comprising oxiranes or α, β-unsaturated δ-lactones, process for their preparation and their utilisation as pesticides” (Instituto Politecnico de Santarem/Escoal Superior Agraria, priority 2004, dated 2009)
Values after ≈ are worked out from the molar mass of the structure shown. “Also recorded” adds a separate entry of the source.

Experiments:
[1] = tested on: adult fruit fly (D. melanogaster); test: Method A: topical treatment of adult fruit fly; format: in vivo, Drosophila melanogaster; conditions: for LD50: Method A, topical 0.2 μL acetone solution, adult fruit flies, 24 hour mortalities, probit regression; for activity against adult fruit flies (in words): topical treatment, from LD50 values
Description: Topical Treatment of Adult Fruit Fly (D. melanogaster)
A culture of fruit flies (D. melanogaster) was used in the production of adult flies (approx 0.22 mg) of about seven days.
Serial dilutions of the compounds were prepared in acetone, and volumes of approximately 0.2 μL were applied to the ventral surface of each insect, using a calibrated PAX 100 microapplicator and a 1 mL syringe.
The fruit flies, in groups of 5, were anaesthetised using carbon dioxide. Prior to recovery the flies were placed in a containing vial and kept at 30±1° C., for observations of mortality at 1, 2, 3 and 24 hours after treatment.
For this purpose solutions of 6 different concentrations and a control were employed in groups of 12 and 20 insects. Control mortalities were normally zero but occasionally rose to 5-10%.
(§1) Dosages used in insect treatments were based upon the amount of compound applied to each insect. For the shrimps the final concentrations of the compounds in the immersion brine were used.
(§2) The 24 hour mortalities were used to calculate the LD50/LC50 using regression analysis of the probability percent mortality (probit) against log dose/concentration.^30 This was calculated using PoloPC software (LeOra Software, Berkeley, Calif., 1994).
In the table are also given the confidence intervals at 95% for the LD50 values, the number of organisms tested, the slope obtained by linear regression and the index g (of significance). Data are considered satisfactory if g is substantially less than 1 and seldom greater than 0.4.^31
As regards the confidence intervals for LD50, the indication (90%) means that the intervals were calculated at 90% and not at 95%.

[2] = tested on: brine shrimp A. salina larvae; test: Method F: immersion bioassay of brine shrimp larvae in brine; format: in vivo; conditions: brine shrimp larvae immersed in brine, 24 hour mortalities
Description: (§3) Immersion Bioassay of Brine Shrimp A. salina Larvae in Brine
(§4) Freshly hatched brine shrimps were prepared by adding aquarium brine shrimp eggs to salt water (15 g sea salt per litre water). The following day hatchlings were separated from eggs and empty egg cases, using their phototropic movement and a Pasteur pipette.
(§5) Into each of a set of small glass vials was pipetted 195 μL of brine containing 5 shrimp larvae, using a micropipette. The solution of the test compound in 5 μL acetone was added, the vial closed and kept at 30±1° C. for observation.
(§6) Dead and alive shrimps were counted, at 1 and 24 hours after treatment, using a microscope. Six concentrations and a control were used with 10 shrimps treated.
(§7) A blank test was performed for comparison of the results.
as §1, §2

adult fruit flies = test: Method B: second method for topical treatment of adult fruit flies; format: in vivo, Drosophila melanogaster; conditions: topical 1 μL acetone solution, 24 hour mortalities
Description: Second Method for Topical Treatment of Adult Fruit Flies
Different dilutions of the compounds in acetone were prepared and applied to individual fruit flies using a Gilson piston micropipette.
Individual flies were held in padded forceps and 1 μL of acetone solution was applied. The acetone was allowed to evaporate before placing the fly into the vial for observation, kept at 30±1° C., following the standard methodology.
as §1, §2

[3] = tested on: glasshouse white fly (T. vaporariorum); test: Method G: foliar treatment of glasshouse white fly on tomato leaves; format: in vivo, Trialeurodes vaporariorum; conditions: for % Control of White Fly: sprayed on infested tomato leaves, 14 hours; for insecticidal efficacy against adult white fly (in words): spraying infested tomato leaves
Description: Method G Foliar Treatment of Glasshouse White Fly (T. vaporariorum) Seedlings of tomato plants were infested with adult white fly. Selected leaves of the tomato plants were excised and carefully trimmed to 3 leaflets without disturbing the infestation. These were placed in glass tubes containing water and the leaflets were then sprayed on both sides with a small sprayer delivering for each one 200 μL of a solution of the test compound dissolved in 30% acetone in water. Controls were sprayed with the solvent alone. Counts of insects on the individual leaflets were made immediately after spraying and then at 14 hours following. Where single dose treatments were used (in the case of whitefly assays), no statistics are available and the results are expressed as percent effect. Five compounds were tested, which were applied spraying 600 μL of each compound solution (prepared according to method G) on of leaves of tomato plants infested with a known number of adult whitefly. After 14 hours, the number of dead insects (or eventually of insects that disappeared) was counted. These assays were performed at room temperature, between 20 and 25° C.

fruit fly larvae = test: Method D: topical treatment of fruit fly larvae; format: in vivo, Drosophila melanogaster; conditions: for LD50: Method D, topical 0.2 μL acetone solution, second and third instar fruit fly larvae; for toxicity to fruit fly larvae compared with adult flies (in words): topical treatment of larvae, from LD50 values
Description: Topical Treatment of Fruit Fly Larvae
Fruit fly larvae were separated from the growing medium and second and third instars were topically treated with 0.2 μL acetone solutions of the compounds using a PAX microapplicator.
Larvae were held in padded forceps for dosing and then placed on moistened filter paper, at 30±1° C., for observation.
as §1, §2

[4] = tested on: house fly adults (M. domestica); test: Method E: topical treatment of house fly adults; format: in vivo, Musca domestica; conditions: topical 1 μL acetone solution, adult house flies, strain Cooper
Description: Topical Treatment of House Fly Adults (M. domestica)
A culture of an insecticide-susceptible strain, Cooper, was established. Three-day-old adult house flies (body weight about […]) were anaesthetised with carbon dioxide. Using the PAX microapplicator, a volume of 1 μL of acetone solution of the test compounds was applied to the dorsal cuticle, holding the fly in padded forceps.
Groups of flies were placed into closed vials, kept at 30±1° C., for observation.
as §1, §2

[5] = Method F: immersion bioassay of brine shrimp larvae in brine; format: in vivo; conditions: Artemia salina (brine shrimp) larvae, in vivo, brine shrimp larvae immersed in brine, 24 hour mortalities
Description: as §3, §4, §5, §6, §7, §1, §2

In the case of `CC1=C[C@H]([C@H]2O[C@@H]3OC(C)(C)O[C@@H]3[C@H]2OCc2ccccc2)OC1=O` [Compound 1, 3-O-benzyl-6,7-dideoxy-1,2-O-isopropylidene-7-methyl-α-D-gluco-oct-6-enefuranurono-8,5-lactone], the LD50 [1] is reported as 0.00002 μg/insect, the “activity against adult fruit flies (in words)” value (“activity” for short) [1] is reported as “extremely active” and the LC50 [2] is reported as 100.62 µg/mL (≈ 290 µM).
With `CC1=C[C@H]([C@H]2O[C@@H]3OC(C)(C)O[C@@H]3[C@@H]2OCc2ccccc2)OC1=O` [Compound 2, 3-O-benzyl-6,7-dideoxy-1,2-O-isopropylidene-7-methyl-α-D-alo-oct-6-enefuranurono-8,5-lactone] the LD50 [1] was 2.27 × 10^−6 μg/insect, the “activity” value [1] was “extremely active” and the LD50 (adult fruit flies) was 0.00398 μg/insect. It also gave an LC50 [2] of 64.30 µg/mL (≈ 186 µM).
For `CC1(C)O[C@H]2O[C@H]([C@H]3C=CC(=O)O3)[C@@H](OCc3ccccc3)[C@H]2O1` [Compound 3, 3-O-benzyl-6,7-dideoxy-1,2-O-isopropylidene-α-D-alo-oct-6-enefuranurono-8,5-lactone], the LD50 [1] was 5.02 × 10^−6 μg/insect, the “activity” value [1] was “extremely active” and the LC50 [2] was 144.71 µg/mL (≈ 435 µM). The “% Control of White Fly” value ([3]; concentration 1.3 μg/mL) was 0%.
For `CC1(C)O[C@H]2O[C@H]([C@H]3C=CC(=O)O3)[C@H](OCc3ccccc3)[C@H]2O1` [Compound 4, 3-O-benzyl-6,7-dideoxy-1,2-O-isopropylidene-α-D-gluco-oct-6-enefuranurono-8,5-lactone], the LD50 [1] was 0.00012 μg/insect, the “activity” value [1] was “high toxicity against adult fruit flies” and the LC50 [2] was 358.92 µg/mL (≈ 1080 µM). The “% Control of White Fly” value ([3]; concentration 2.5 μg/mL) was 50% and the “insecticidal efficacy against adult white fly (in words)” value [3] was “show efficacy as insecticides; also recorded: promising for activity against the white fly”.
With `CC(=O)OC[C@H]1OC(=O)C(Br)=C[C@@H]1OC(C)=O` [Compound 5, 4,6-di-O-acetyl-2-bromo-2,3-dideoxy-D-erythro-hex-2-enone-1,5-lactone] the LD50 [1] was 0.00016 μg/insect, the LD50 (fruit fly larvae) was 4.75 μg/insect and the “toxicity to fruit fly larvae compared with adult flies (in words)” value (fruit fly larvae) was “less toxic for larvae than for adult flies”. The LD50 [4] was 1.065 μg/insect and the LC50 [2] was 38.36 µg/mL (≈ 125 µM).
For `CC1(C)OC2OC(C3CC(C)([Se]c4ccccc4)C(=O)O3)C(OCc3ccccc3)C2O1` [Compound 8, (7R)-/(7S)-3-O-Benzyl-6,7-dideoxy-1,2-O-isopropylidene-7-methyl-7-phenylselenyl-α-D-gluco-octofuranurono-8,5-lactone], the LD50 [1] was 0.00037 μg/insect, the “toxicity to fruit fly larvae compared with adult flies (in words)” value (fruit fly larvae) was “less toxic for larvae than for adult flies” and the LD50 [4] was 0.644 μg/insect. The LC50 [2] was 220.41 µg/mL (≈ 438 µM).
In the case of `CO[C@H]1O[C@H]([C@@H]2CO2)[C@@H]2O[C@H]12` [Compound 9, Methyl 2,3:5,6-Dianhydro-β-L-gulofuranoside], the LD50 [1] is reported as 0.00003 μg/insect, the “activity” value [1] is reported as “extremely active; also recorded: high toxicity against adult fruit flies” and the LC50 [2] is reported as 671.50 µg/mL (≈ 4250 µM). For the same compound, the “% Control of White Fly” value ([3]; concentration 2.5 μg/mL) was 85% and the “insecticidal efficacy against adult white fly (in words)” value [3] was “show efficacy as insecticides; also recorded: promising for activity against the white fly”.
In the case of `O=[N+]([O-])NC1=NCCN1Cc1ccc(Cl)nc1` [Imidacloprid, imidacloprid, reference compound], the LD50 [1] is reported as 0.01253 μg/insect and the LC50 at 24 h [5] is reported as 0.0312 µg/mL (≈ 0.122 µM).
“(7R)-/(7S)-3,6,7-Trideoxy-1,2-O-isopropylidene-7-methyl-7-phenylselenyl-α-D-ribo-octofuranurono-8,5-lactone [Compound 7]” showed an LD50 [1] of 0.0002 μg/insect, an LD50 (fruit fly larvae) of 0.968 μg/insect and an LC50 [2] of 261.04 µg/mL. The “% Control of White Fly” value ([3]; concentration 4.8 μg/mL) was 0%.
In the case of “methyl (7R)-/(7S)-2,3-anhydro-6,7-dideoxy-7-methyl-7-phenylselenyl-α-gulo-octofuranurono-8,5-lactone [Compound 6]”, the LD50 [1] is reported as 0.00015 μg/insect, the LC50 [2] is reported as 125.48 µg/mL and the “% Control of White Fly” value ([3]; concentration 1.3 μg/mL) is reported as 0%.
